Experimental data taken from patent US20260166162A1, “CARBON CHAIN SUBSTANCE FOR REGULATING TRANSMEMBRANE TRANSPORT AND FLUIDITY OF CELL MEMBRANES, AND PREPARATION AND USE THEREOF” (priority 2022, published 2026).
Read-outs that look alike come from different tables or passages of the source.

What was measured:
Format in all cases: cell-based
rabies pseudovirus = tested on: rabies pseudovirus
293T cells = assay: Cellular phagocytosis of DiD-loaded lipid vesicles (nano-drugs) by 293T cells (Example II-51, Table II-29); settings: 293T cells pretreated 4 h, DiD lipid vesicles 2 h, n=3, untreated control 226.46 ± 1.26
HIV pseudovirus (18A-41) = settings: 293T cells pretreated 4 h, n=3
[1] = tested on: influenza pseudovirus H7N9-Fluc; assay: microbe, parasite or virus in culture; settings: n=3; for inhibition at 0.002 µM / inhibition at 0.005 µM / inhibition at 0.01 µM / inhibition at 0.05 µM / inhibition at 0.1 µM / inhibition at 1 µM / inhibition at 10 µM / inhibition at 50 µM / inhibition at 100 µM: Pseudovirus, H7N9, read-out: Inhibition rate (%)
[2] = 100 μM, negative value = promotes infection

Row | Compound | Fluorescence intensity (293T cells; 2 nM) | Fluorescence intensity (293T cells; 5 nM) | Fluorescence intensity (293T cells; 10 nM) | Fluorescence intensity (293T cells; 50 nM) | Fluorescence intensity (293T cells; 100 nM) | Fluorescence intensity (293T cells; 1 uM) | Fluorescence intensity (293T cells; 10 uM) | Fluorescence intensity (293T cells; 50 uM) | Fluorescence intensity (293T cells; 100 uM) | Inhibition rate (%) (HIV pseudovirus (18A-41); 2 nM) | Inhibition rate (%) (HIV pseudovirus (18A-41); 5 nM) | Inhibition rate (%) (HIV pseudovirus (18A-41); 10 nM) | Inhibition rate (%) (HIV pseudovirus (18A-41); 50 nM) | Inhibition rate (%) (HIV pseudovirus (18A-41); 100 nM) | Inhibition rate (%) (HIV pseudovirus (18A-41); 1 μM) | Inhibition rate (%) (HIV pseudovirus (18A-41); 10 μM) | Inhibition rate (%) (HIV pseudovirus (18A-41); 50 μM) | Inhibition rate (%) (HIV pseudovirus (18A-41); [2]) | also measured
1 | CC/C=C\C/C=C\C/C=C\C/C=C\C/C=C\C/C=C\CCC(=O)OCC(O)C1OC(=O)C(O)=C1O (centres unmarked) [Ascorbic Acid-DHA] | 98.37 ± 7.89 | 92.26 ± 8.23 | 69.70 ± 4.55 | 73.98 ± 5.36 | 243.38 ± 11.00 | 253.70 ± 10.23 | 58.97 ± 1.55 | 39.02 ± 1.03 | 19.86 ± 0.23 |  |  |  |  |  |  |  |  |  | Inhibition rate (%) (rabies pseudovirus; 2 nM, n=3): 51.40 ± 1.54%; Inhibition rate (%) (rabies pseudovirus; 5 nM, n=3): 51.99 ± 3.99%; Inhibition rate (%) (rabies pseudovirus; 10 nM, n=3): 64.84 ± 6.57%; Inhibition rate (%) (rabies pseudovirus; 50 nM, n=3): 70.88 ± 4.22%; Inhibition rate (%) (rabies pseudovirus; 100 nM, n=3): 79.06 ± 2.39%; Inhibition rate (%) (rabies pseudovirus; 1 μM, n=3): 14.83 ± 4.26%; Inhibition rate (%) (rabies pseudovirus; 10 μM, n=3): 34.88 ± 5.99%; Inhibition rate (%) (rabies pseudovirus; 50 μM, n=3): 95.55 ± 6.98%; Inhibition rate (%) (rabies pseudovirus; 100 μM, n=3): 99.08 ± 6.36%
2 | CCC=CCC=CCC=CCC=CCC=CCCCC(=O)OCC(O)C1OC(=O)C(O)=C1O (centres unmarked) [Ascorbic Acid-EPA] |  |  |  |  |  |  |  |  |  | 72.04 ± 6.02 | 68.76 ± 5.79 | 86.46 ± 3.84 | 97.33 ± 5.33 | 98.77 ± 3.22 | -82.83 ± 7.59 | -64.54 ± 5.62 | 80.74 ± 4.76 | 82.84 ± 4.75 | 
3 | CCCCCCCC/C=C\CCCCCCCC(=O)OCCO [Ethylene glycol-OA] |  |  |  |  |  |  |  |  |  | 82.74 ± 5.06 | 83.09 ± 3.25 | 89.89 ± 4.06 | 94.33 ± 6.32 | 93.46 ± 3.23 | -92.33 ± 2.66 | -84.04 ± 6.24 | 79.46 ± 8.46 | 86.47 ± 5.86 | 
4 | CCCCCCCCCC(=O)O [N-decanoic acid] | 131.26 ± 8.63 | 114.00 ± 11.2 | 94.34 ± 7.54 | 96.63 ± 6.99 | 143.94 ± 13.26 | 237.62 ± 17.5 | 147.74 ± 14.23 | 135.74 ± 15.2 | 127.34 ± 12.22 |  |  |  |  |  |  |  |  |  | Inhibition rate (%) ([1]; 2 nM): 35.04 ± 2.04%; Inhibition rate (%) ([1]; 5 nM): 31.86 ± 2.23%; Inhibition rate (%) ([1]; 10 nM): 66.11 ± 2.33%; Inhibition rate (%) ([1]; 50 nM): 75.38 ± 2.03%; Inhibition rate (%) ([1]; 100 nM): 75.54 ± 4.00%; Inhibition rate (%) ([1]; 1 μM): -32.33 ± 1.56%; Inhibition rate (%) ([1]; 10 μM): -54.38 ± 4.38%; Inhibition rate (%) ([1]; 50 μM): 41.08 ± 4.08%; Inhibition rate (%) ([1]; 100 μM): 47.98 ± 3.09%
5 | CCCCCCCCC(=O)O [Nonanoic acid] | 157.30 ± 7.06 | 176.50 ± 7.06 | 106.35 ± 4.65 | 98.90 ± 8.26 | 106.35 ± 5.06 | 243.20 ± 13.65 | 135.36 ± 11.03 | 64.86 ± 5.54 | 104.28 ± 10.25 |  |  |  |  |  |  |  |  |  | inhibition at 0.002 µM ([1]; 2 nM): 42 ± 3.06%; inhibition at 0.005 µM ([1]; 5 nM): 49.7 ± 1.56%; inhibition at 0.01 µM ([1]; 10 nM): 58.3 ± 4.02%; inhibition at 0.05 µM ([1]; 50 nM): 57.3 ± 1.66%; inhibition at 0.1 µM ([1]; 100 nM): 36.4 ± 2.33%; inhibition at 1 µM ([1]; 1 μM): -4.93 ± 0.23%; inhibition at 10 µM ([1]; 10 μM): 34.8 ± 3.06%; inhibition at 50 µM ([1]; 50 μM): 40.1 ± 1.23%; inhibition at 100 µM ([1]; 100 μM): 43.8 ± 4.38%
6 | C=CCCCCCCCCC(=O)[O-].[Na+] [Sodium undecylenate] | 135.63 ± 7.06 | 100.34 ± 8.06 | 89.79 ± 4.98 | 62.57 ± 3.60 | 57.18 ± 5.23 | 232.89 ± 12.26 | 325.29 ± 15.22 | 63.77 ± 3.37 | 58.70 ± 2.66 |  |  |  |  |  |  |  |  |  | inhibition at 0.002 µM ([1]; 2 nM): 30.5 ± 2.36%; inhibition at 0.005 µM ([1]; 5 nM): 22.1 ± 2.14%; inhibition at 0.01 µM ([1]; 10 nM): 53 ± 5.03%; inhibition at 0.05 µM ([1]; 50 nM): 56.3 ± 5.03%; inhibition at 0.1 µM ([1]; 100 nM): 53 ± 4.06%; inhibition at 1 µM ([1]; 1 μM): -7.39 ± 0.22%; inhibition at 10 µM ([1]; 10 μM): 40.2 ± 3.23%; inhibition at 50 µM ([1]; 50 μM): 71.4 ± 3.26%; inhibition at 100 µM ([1]; 100 μM): 54 ± 4.39%
7 | CCCCCC/C=C\CCCCCCCC(=O)OC(C)C(N)C(=O)O (centres unmarked) [Threonine-c-9-hexadecanoic acid] |  |  |  |  |  |  |  |  |  |  |  |  |  |  |  |  |  |  | Inhibition rate (%) ([1]; 2 nM): 56.47 ± 5.47%; Inhibition rate (%) ([1]; 5 nM): 79.21 ± 5.22%; Inhibition rate (%) ([1]; 10 nM): 60.86 ± 4.03%; Inhibition rate (%) ([1]; 50 nM): 59.03 ± 1.64%; Inhibition rate (%) ([1]; 100 nM): 68.64 ± 2.03%; Inhibition rate (%) ([1]; 1 μM): 12.84 ± 1.03%; Inhibition rate (%) ([1]; 10 μM): 34.49 ± 4.49%; Inhibition rate (%) ([1]; 50 μM): 71.06 ± 4.08%; Inhibition rate (%) ([1]; 100 μM): 78.34 ± 4.39%
8 | Cc1c(C)c2c(c(C)c1O)CCC(C)(CCCC(C)CCCC(C)CCCC(C)C)O2 (centres unmarked) [Vitamin-E, Vitamin E] | 100.41 ± 4.43 | 86.35 ± 2.47 | 67.85 ± 1.43 | 46.81 ± 1.48 | 22.67 ± 0.03 | 417.43 ± 15.23 | 217.04 ± 7.44 | 87.50 ± 2.33 | 92.89 ± 5.33 | 55.66 ± 6.03 | 61.87 ± 5.06 | 70.04 ± 4.65 | 79.33 ± 5.89 | 89.99 ± 8.97 | -84.33 ± 6.36 | 4.16 ± 0.11 | 61.36 ± 8.64 | 58.98 ± 6.37 | 
9 | Ascorbic acid-undecanedioic acid |  |  |  |  |  |  |  |  |  |  |  |  |  |  |  |  |  |  | Inhibition rate (%) ([1]; 2 nM): 36.88 ± 5.99%; Inhibition rate (%) ([1]; 5 nM): 70.10 ± 2.01%; Inhibition rate (%) ([1]; 10 nM): 71.74 ± 5.03%; Inhibition rate (%) ([1]; 50 nM): 67.01 ± 5.59%; Inhibition rate (%) ([1]; 100 nM): 74.96 ± 2.33%; Inhibition rate (%) ([1]; 1 μM): 32.33 ± 2.37%; Inhibition rate (%) ([1]; 10 μM): 44.08 ± 1.28%; Inhibition rate (%) ([1]; 50 μM): 83.56 ± 4.03%; Inhibition rate (%) ([1]; 100 μM): 73.01 ± 4.05%
10 | Glucosamine-n-octanoic acid |  |  |  |  |  |  |  |  |  | 22.59 ± 6.09 | 54.47 ± 2.09 | 78.34 ± 3.66 | 89.33 ± 3.65 | 88.76 ± 4.87 | -62.33 ± 3.93 | -84.26 ± 6.61 | 51.09 ± 9.38 | 53.68 ± 6.07 | 
11 | Glucose-hexadecanoic acid |  |  |  |  |  |  |  |  |  | 50.54 ± 1.56 | 57.26 ± 6.09 | 86.44 ± 5.03 | 85.46 ± 3.99 | 89.99 ± 5.07 | -94.23 ± 9.06 | -44.88 ± 1.03 | 87.59 ± 5.03 | 98.87 ± 6.03 | 
12 | Glucose-oleic acid | 102.16 ± 8.65 | 92.37 ± 4.56 | 65.99 ± 6.23 |  | 71.02 ± 4.02 | 436.71 ± 15.66 | 216.29 ± 5.24 | 42.89 ± 2.32 | 26.41 ± 5.32 |  |  |  |  |  |  |  |  |  | Inhibition rate (%) (rabies pseudovirus; 0.002 µM): 50.11 ± 3.11%; Inhibition rate (%) (rabies pseudovirus; 0.005 µM): 65.69 ± 6.69%; Inhibition rate (%) (rabies pseudovirus; 0.01 µM): 80.35 ± 2.06%; Inhibition rate (%) (rabies pseudovirus; 0.05 µM): 72.37 ± 3.37%; Inhibition rate (%) (rabies pseudovirus; 0.1 µM): 71.05 ± 2.54%; Inhibition rate (%) (rabies pseudovirus; 1 µM): -14.84 ± 1.54%; Inhibition rate (%) (rabies pseudovirus; 10 µM): -33.5 ± 2.54%; Inhibition rate (%) (rabies pseudovirus; 50 µM): 70.04 ± 5.07%; Inhibition rate (%) (rabies pseudovirus; 100 µM): 80.21 ± 5.30%
